Test: xn = mol fraction of the nth substance listed
Settings: 101 kPa, Liquid; for viscosity: Capillary tube (Ostwald / Ubbelohde) method; for speed of sound: Linear variable-path acoustic interferometer; for mass density: Pycnometric method

CC#N [acetonitrile] + Cc1ccccc1
Settings | mass density, 298.15 K [kg/m3] | mass density, 303.15 K [kg/m3] | mass density, 308.15 K [kg/m3] | speed of sound, 298.15 K [m/s] | speed of sound, 303.15 K [m/s] | speed of sound, 308.15 K [m/s] | viscosity, 298.15 K [mPa·s] | viscosity, 303.15 K [mPa·s] | viscosity, 308.15 K [mPa·s]
x2 = 0 | 775.3 | 769.9 | 764.7 | 1271.3 | 1251.9 | 1231.7 | 0.3696 | 0.3554 | 0.3414
x2 = 0.0506 | 784.6 | 779 | 773.6 | 1273.8 | 1253.9 | 1233.4 | 0.3809 | 0.3653 | 0.3503
x2 = 0.1082 | 794.1 | 788.4 | 782.9 | 1276.5 | 1256.3 | 1235.5 | 0.394 | 0.3772 | 0.3609
x2 = 0.1704 | 803.3 | 797.5 | 792 | 1279.3 | 1259 | 1238 | 0.408 | 0.39 | 0.3729
x2 = 0.2421 | 812.6 | 806.6 | 801.4 | 1282.4 | 1261.8 | 1240.9 | 0.4241 | 0.4045 | 0.3864
x2 = 0.3228 | 821.8 | 815.7 | 810.5 | 1285.7 | 1265 | 1244.3 | 0.4423 | 0.4211 | 0.4017
x2 = 0.4163 | 830.7 | 824.7 | 819.7 | 1289.2 | 1268.2 | 1247.8 | 0.4625 | 0.44 | 0.4193
x2 = 0.5288 | 839.6 | 833.8 | 828.7 | 1292 | 1270.9 | 1250.7 | 0.486 | 0.4614 | 0.4389
x2 = 0.6577 | 847.5 | 841.9 | 836.9 | 1294.5 | 1273.6 | 1253.5 | 0.5098 | 0.4834 | 0.4591
x2 = 0.8089 | 854.6 | 849.3 | 844.6 | 1296.7 | 1275.9 | 1256.3 | 0.5353 | 0.5069 | 0.4817

CCCC#N [butanenitrile] + Cc1ccccc1
Settings | mass density, 298.15 K [kg/m3] | mass density, 303.15 K [kg/m3] | mass density, 308.15 K [kg/m3] | speed of sound, 298.15 K [m/s] | speed of sound, 303.15 K [m/s] | speed of sound, 308.15 K [m/s] | viscosity, 298.15 K [mPa·s] | viscosity, 303.15 K [mPa·s] | viscosity, 308.15 K [mPa·s]
x2 = 0 | 784.7 | 780.3 | 775.9 | 1271.4 | 1252.2 | 1233.9 | 0.5463 | 0.5255 | 0.5049
x2 = 0.082 | 792.7 | 788.1 | 783.6 | 1276.3 | 1256.5 | 1237.9 | 0.5484 | 0.5265 | 0.5053
x2 = 0.1673 | 800.8 | 796.1 | 791.5 | 1280.6 | 1260.4 | 1241.7 | 0.5504 | 0.5276 | 0.5058
x2 = 0.2537 | 808.6 | 803.8 | 799.2 | 1284.9 | 1264.5 | 1245.4 | 0.5522 | 0.5287 | 0.5064
x2 = 0.3488 | 816.8 | 812 | 807.4 | 1289.2 | 1268.6 | 1249.3 | 0.5541 | 0.5299 | 0.5069
x2 = 0.4436 | 824.5 | 819.7 | 815.1 | 1292.6 | 1272.2 | 1252.5 | 0.5559 | 0.5309 | 0.5074
x2 = 0.5435 | 832.2 | 827.3 | 822.8 | 1294.9 | 1274.6 | 1254.7 | 0.5576 | 0.5317 | 0.5079
x2 = 0.651 | 839.8 | 834.9 | 830.4 | 1296.7 | 1276.5 | 1256.5 | 0.5592 | 0.5324 | 0.5082
x2 = 0.759 | 846.9 | 841.9 | 837.4 | 1298 | 1277.4 | 1257.8 | 0.5607 | 0.5329 | 0.5084
x2 = 0.8771 | 854.1 | 849.1 | 844.6 | 1298.7 | 1278.3 | 1259 | 0.5622 | 0.5337 | 0.5088

CCC#N [propanenitrile] + Cc1ccccc1
Settings | mass density, 298.15 K [kg/m3] | mass density, 303.15 K [kg/m3] | mass density, 308.15 K [kg/m3] | speed of sound, 298.15 K [m/s] | speed of sound, 303.15 K [m/s] | speed of sound, 308.15 K [m/s] | viscosity, 298.15 K [mPa·s] | viscosity, 303.15 K [mPa·s] | viscosity, 308.15 K [mPa·s]
x2 = 0 | 775.4 | 769.9 | 765.2 | 1252.4 | 1232.7 | 1213.7 | 0.4107 | 0.3991 | 0.3822
x2 = 0.0668 | 784.4 | 778.8 | 773.9 | 1257.2 | 1237 | 1217.6 | 0.4222 | 0.4087 | 0.3907
x2 = 0.1397 | 793.6 | 787.9 | 783 | 1262.2 | 1241.7 | 1222 | 0.4346 | 0.4194 | 0.4004
x2 = 0.2164 | 802.6 | 796.8 | 791.9 | 1267.3 | 1246.5 | 1226.7 | 0.4476 | 0.4306 | 0.4106
x2 = 0.3011 | 811.7 | 806 | 801.1 | 1272.9 | 1252 | 1232 | 0.4617 | 0.4432 | 0.422
x2 = 0.3905 | 820.5 | 814.9 | 810.1 | 1278.2 | 1257.1 | 1237.1 | 0.4765 | 0.4561 | 0.4341
x2 = 0.4917 | 829.4 | 823.9 | 819.1 | 1283 | 1262.1 | 1242.1 | 0.4927 | 0.4702 | 0.4475
x2 = 0.5989 | 837.7 | 832.3 | 827.6 | 1287.1 | 1266.2 | 1246.3 | 0.5082 | 0.4842 | 0.4606
x2 = 0.7174 | 845.7 | 840.5 | 835.8 | 1291.2 | 1270.4 | 1250.5 | 0.5247 | 0.4989 | 0.4748
x2 = 0.854 | 853.7 | 848.6 | 844 | 1295.2 | 1274.5 | 1255.2 | 0.5434 | 0.5158 | 0.4911
